# Assay results from US6492366B1, “Cyano-indole serotonin-reuptake inhibitor compound” (Les Laboratoires Servier, priority 1999, dated 2002).
# How the values were obtained:
# [1] = system: spontaneous marble-burying behaviour of mice; experiment: Marble-burying test in mice; format: in vivo; settings: Mus musculus, 0.5 h; male NMRI mice, 24 marbles, 30 minutes' free exploration; read-out: ED50 (Efficacy dose 50), inhibition of marble-burying
# Description: Marble-burying Test in Mice This test enables evaluation of the capacity of pharmacological agents to inhibit the spontaneous marble-burying behaviour of mice, the inhibition being predictive of antidepressant and/or anti-impulsive action. Male mice of the NMRI strain weighing from 20 to 25 g on the day of the experiment are placed individually in Macrolon boxes (30×18×19 cm) containing 5 cm of sawdust and covered with a perforated plexiglass plate. Twenty four “tiger's eye” glass marbles are evenly distributed on the sawdust at the periphery of the box. At the end of 30 minutes' free exploration, the animals are removed from the box and the number of buried marbles is counted.
# serotonin-reuptake sites = molecular target: T1, serotonin-reuptake sites (Rattus norvegicus, UniProt P31652); experiment: Determination of affinity for serotonin-reuptake sites in the rat ([3H]-paroxetine competition); format: binding; settings: rat frontal cortex membranes, 0.25 nM [3H]-paroxetine, 2 hours at 25° C.
# T1 construct: The membranes are prepared from rat frontal cortex; from tissue; host or cells: rat frontal cortex membranes
# T1 sequence (P31652 whole entry): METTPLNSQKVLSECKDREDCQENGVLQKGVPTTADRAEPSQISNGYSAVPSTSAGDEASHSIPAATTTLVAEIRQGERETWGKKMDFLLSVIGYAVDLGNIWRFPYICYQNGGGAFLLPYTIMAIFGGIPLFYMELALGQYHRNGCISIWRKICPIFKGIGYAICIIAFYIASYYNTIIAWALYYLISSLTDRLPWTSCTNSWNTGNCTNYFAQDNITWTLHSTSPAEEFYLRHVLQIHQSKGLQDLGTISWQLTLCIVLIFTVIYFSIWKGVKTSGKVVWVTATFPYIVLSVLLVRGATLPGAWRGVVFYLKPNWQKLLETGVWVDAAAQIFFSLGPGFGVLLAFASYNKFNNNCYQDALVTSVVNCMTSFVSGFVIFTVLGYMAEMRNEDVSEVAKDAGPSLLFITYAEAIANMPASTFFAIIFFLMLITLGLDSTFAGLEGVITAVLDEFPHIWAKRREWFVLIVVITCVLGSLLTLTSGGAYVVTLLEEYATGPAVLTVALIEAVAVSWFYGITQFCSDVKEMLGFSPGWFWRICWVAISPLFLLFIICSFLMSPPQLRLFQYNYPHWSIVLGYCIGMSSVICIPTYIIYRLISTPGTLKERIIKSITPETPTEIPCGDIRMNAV
# Description: Determination of Affinity for Serotonin-reuptake Sites in the Rat The affinity of the compounds of the invention was determined by competition experiments with [^3H]-paroxetine. The membranes are prepared from rat frontal cortex and are incubated in triplicate with 0.25 nM [^3H]-paroxetine and the cold ligand in a final volume of 0.4 ml, for 2 hours at 25° C. The incubation buffer contains 50 mM TRIS-HCl (pH 7.4), 120 mM NaCl and 5 mM KCl. Non-specific binding is determined using 10 μM citalopram. At the end of the incubation, the mixture is filtered through filters and washed three times with 5 ml of cooled buffer. The radioactivity retained on the filters is determined by liquid scintillation counting. The binding isotherms are analysed by non-linear regression to determine the IC50 values. The latter are converted into a dissociation constant (Ki) using the Cheng-Prusoff equation: Ki=IC50/[…] wherein L is the concentration of [^3H]-paroxetine and Kd is the dissociation constant (0.13 nM).
Ki (serotonin-reuptake sites),SMILES,ED50 [1]
400 pM,"Cl.N#Cc1ccc2[nH]cc(CC3CCN(CCc4cc5c(cc4Cl)NC(=O)C5)C3)c2c1 (stereo not drawn) [Example 6, 3-({1-[2-(6-Chloro-2-oxo-2,3-dihydro-1H-indol-5-yl)ethyl]-3-pyrrolidinyl}methyl)-1H-indole-5-carbonitrile Hydrochloride]",3.8 mg/kg
,"Cl.N#Cc1ccc2[nH]cc(CC3CCN(CCc4ccc5c(c4)CC(=O)N5)C3)c2c1 (stereo not drawn) [Example 7, 3-({1-[2-(2-Oxo-2,3-dihydro-1H-indol-5-yl)ethyl]-3-pyrrolidinyl}-methyl)-1H-indole-5-carbonitrile Hydrochloride]",1.5 mg/kg
